Test results taken from PMC3106281 (Analytical biochemistry, 2010).
In brackets after ≈: the same amount, converted by molar mass. Where two headings read alike, the source gives them in different places. Bridge positions count the residues as written; N and C are the ends. Square brackets hold non-standard residues; d marks the D form. Peptide text beside a SMILES is read from it. * marks the point of attachment. X1 = CC[C@H](C)CCCCC(=O)*; Dab = NCC[C@H](N)C(=O)O

Assays:
A. baumannii ATCC 19606 = format: cell-based, Acinetobacter baumannii; settings: broth microdilution
[1] = system: colistin-resistant A. baumannii clinical isolate; format: cell-based, Acinetobacter baumannii; settings: broth microdilution
[2] = system: colistin-resistant P. aeruginosa clinical isolate; format: cell-based, Pseudomonas aeruginosa; settings: broth microdilution, two replicates
K. pneumoniae ATCC 13883 = format: cell-based, Klebsiella pneumoniae; settings: broth microdilution
[3] = system: colistin-resistant K. pneumoniae clinical isolate; format: cell-based, Klebsiella pneumoniae; settings: broth microdilution
[4] = Isothermal titration calorimetry; format: binding, Escherichia coli; settings: ITC, 37°C
[5] = ref [52], cited from earlier work
[6] = above the Tc; ref [54]; cited from earlier work
[7] = Fluorometric assay, purified LPS; format: binding; settings: E. coli, K. pneumoniae, S. enterica (and P. aeruginosa) LPS
bacteria = settings: ref [47]; [48]; cited from earlier work

## CC[C@H](C)CCCCC(=O)N[C@@H](CCN)C(=O)N[C@H](C(=O)N[C@@H](CCN)C(=O)N[C@H]1CCNC(=O)[C@H]([C@@H](C)O)NC(=O)[C@H](CCN)NC(=O)[C@H](CCN)NC(=O)[C@H](CC(C)C)NC(=O)[C@@H](CC(C)C)NC(=O)[C@H](CCN)NC1=O)[C@@H](C)O [Colistin, colistin] (X1-[Dab]T[Dab][Dab][Dab][dL]L[Dab][Dab]T; lactam 4-C (inferred); N-terminus assumed)
A. baumannii ATCC 19606
  MIC: 1 µg/mL (≈ 0.855 µM)
[1]
  MIC: 16 µg/mL (≈ 13.7 µM)
[2]
  MIC: > 128 µg/mL
K. pneumoniae ATCC 13883
  MIC: 1 µg/mL (≈ 0.855 µM)
[3]
  MIC: > 128 µg/mL

## polymyxin B [PmB]
[4]; LPS 125 μM, 14th injection (PmB), 18th injection (DPmB3)
  Absolute peptide concentration in the cell where saturation began: 98 µM
[4]; first set of sites, 20 mM HEPES pH 7.0, two-site model
  ΔH1: -1.5 ± 0.4 kcal/mol
[4]; first set of sites, calculated from ΔH and ΔG0
  ΔS1: 6.9 kcal/mol
[4]; second set of sites, 20 mM HEPES pH 7.0, two-site model
  ΔH2: -12 ± 3.7 kcal/mol
[4]; second set of sites, calculated from ΔH and ΔG0
  ΔS2: -1.8 kcal/mol
[5]; temperatures ≤30°C, below Tc of LPS
  Calorimetric reaction with LPS: endothermic
[5]; ≥35°C, above phase transition temperature, [53]
  Calorimetric reaction with LPS: exothermic
[6]
  Calorimetric reaction with LPS: endothermic

## polymyxin B nonapeptide [PBN]
[7]
  Binding affinity for isolated LPS, comparison in words: lowest binding affinity for LPS
bacteria
  Antibacterial activity: negligible antibacterial activity
